Paper PMC9516332 (Frontiers in Oncology, 2022)
Like-named read-outs stand apart in the source and are kept apart here.

Columns and labels:
Experiment in all cases: Kinase panel profiling at 1 µmol/L (MSA or IMAP), percentage inhibition
Assay type in all cases: biochemical
[1] = target: T1, panel of 255 wild-type kinases (Homo sapiens, UniProt P51955); settings: read-out: %-inhibition, NEK2
T1 sequence (P51955 1-445): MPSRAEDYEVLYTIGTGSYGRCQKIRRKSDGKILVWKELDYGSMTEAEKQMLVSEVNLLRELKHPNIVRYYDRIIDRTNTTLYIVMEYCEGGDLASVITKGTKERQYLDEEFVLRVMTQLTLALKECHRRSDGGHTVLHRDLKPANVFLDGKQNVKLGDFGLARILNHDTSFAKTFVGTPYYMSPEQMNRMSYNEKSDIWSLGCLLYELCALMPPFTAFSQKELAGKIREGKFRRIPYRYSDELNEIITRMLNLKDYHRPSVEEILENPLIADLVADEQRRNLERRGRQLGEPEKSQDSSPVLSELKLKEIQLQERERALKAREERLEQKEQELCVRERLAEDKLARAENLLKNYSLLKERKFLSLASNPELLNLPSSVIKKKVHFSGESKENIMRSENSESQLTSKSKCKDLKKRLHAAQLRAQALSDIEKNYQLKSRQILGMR

[2] = target: panel of 255 wild-type kinases (Homo sapiens, UniProt O75116); settings: read-out: %-inhibition at 1 µmol/L, ROCK2
[3] = target: T2, panel of 255 wild-type kinases (Homo sapiens, UniProt O60285); settings: read-out: %-inhibition, NuaK1
T2 sequence (O60285 1-661): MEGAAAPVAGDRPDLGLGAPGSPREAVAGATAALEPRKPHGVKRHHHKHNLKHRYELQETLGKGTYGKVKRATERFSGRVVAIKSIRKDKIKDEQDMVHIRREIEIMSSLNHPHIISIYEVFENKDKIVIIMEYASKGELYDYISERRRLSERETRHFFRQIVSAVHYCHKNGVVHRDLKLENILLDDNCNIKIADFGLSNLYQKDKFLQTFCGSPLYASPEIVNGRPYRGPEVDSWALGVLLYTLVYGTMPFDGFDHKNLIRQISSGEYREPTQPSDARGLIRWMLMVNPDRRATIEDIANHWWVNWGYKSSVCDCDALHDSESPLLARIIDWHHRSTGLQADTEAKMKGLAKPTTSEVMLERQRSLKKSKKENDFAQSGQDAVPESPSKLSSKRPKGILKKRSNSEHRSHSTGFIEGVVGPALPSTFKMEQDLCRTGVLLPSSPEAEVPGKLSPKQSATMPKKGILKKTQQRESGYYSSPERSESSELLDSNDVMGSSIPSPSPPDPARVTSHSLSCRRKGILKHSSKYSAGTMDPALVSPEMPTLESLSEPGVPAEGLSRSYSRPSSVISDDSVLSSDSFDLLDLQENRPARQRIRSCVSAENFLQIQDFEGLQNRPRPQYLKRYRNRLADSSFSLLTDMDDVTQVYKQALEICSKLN

[4] = target: T3, panel of 255 wild-type kinases (Homo sapiens, UniProt Q16832); settings: read-out: %-inhibition at 1 µmol/L, DDR2
T3 sequence (Q16832 22-855): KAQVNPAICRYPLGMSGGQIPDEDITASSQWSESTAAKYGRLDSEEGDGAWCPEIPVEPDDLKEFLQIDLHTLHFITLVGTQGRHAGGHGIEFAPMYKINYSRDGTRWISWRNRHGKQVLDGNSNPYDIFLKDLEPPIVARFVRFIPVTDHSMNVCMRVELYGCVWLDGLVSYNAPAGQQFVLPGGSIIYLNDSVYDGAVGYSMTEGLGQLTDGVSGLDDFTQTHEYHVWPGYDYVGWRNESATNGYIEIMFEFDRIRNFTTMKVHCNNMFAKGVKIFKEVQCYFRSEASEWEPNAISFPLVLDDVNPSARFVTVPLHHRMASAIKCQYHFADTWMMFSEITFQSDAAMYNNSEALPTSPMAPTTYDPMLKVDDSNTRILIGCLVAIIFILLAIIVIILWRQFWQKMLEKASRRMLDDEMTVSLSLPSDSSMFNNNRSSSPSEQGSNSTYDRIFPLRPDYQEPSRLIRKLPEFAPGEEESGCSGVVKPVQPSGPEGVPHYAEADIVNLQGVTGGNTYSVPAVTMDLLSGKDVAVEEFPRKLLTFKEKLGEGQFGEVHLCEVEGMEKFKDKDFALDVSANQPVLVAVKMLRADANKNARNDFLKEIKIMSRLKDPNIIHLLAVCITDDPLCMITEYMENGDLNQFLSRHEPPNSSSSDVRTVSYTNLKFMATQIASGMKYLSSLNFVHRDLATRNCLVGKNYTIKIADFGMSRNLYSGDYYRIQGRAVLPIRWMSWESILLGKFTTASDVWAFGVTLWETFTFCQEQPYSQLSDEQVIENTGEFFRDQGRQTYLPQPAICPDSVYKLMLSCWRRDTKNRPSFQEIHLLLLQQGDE

[5] = NEK2, 1 µmol/L single concentration
[6] = kinase ROCK2, 1 µmol/L single concentration
[7] = NuaK1, 1 µmol/L single concentration
[8] = kinase DDR2, 1 µmol/L single concentration

Structure (SMILES)	inhibition at 1 µM [1, 5]	inhibition at 1 µM [2, 6]	inhibition at 1 µM [3, 7]	inhibition at 1 µM [4, 8]	inhibition at 1 µM [1]	inhibition at 1 µM [2]	inhibition at 1 µM [3]	inhibition at 1 µM [4]
CO[C@]1(C(=O)N[C@@H](C)c2ccc(-n3cc(F)cn3)nc2)CC[C@H](c2nc(C)cc(Nc3cc(C)[nH]n3)n2)CC1 [pralsetinib]	7.4%	1.29%	91%	102%				
COc1cc2ncnc(Nc3ccc(F)c(Cl)c3)c2cc1NC(=O)/C=C/CN1CCCCC1 [dacomitinib]	-2.41%	-4.35%	11%	93%				
CCn1c(=O)c(-c2cc(NC(=O)Nc3ccccc3)c(F)cc2Br)cc2cnc(NC)cc21 [ripretinib]	-0.18%	-1.2%	4.32%	98%				
Cc1nc(NC(=O)N2CCC[C@H]2C(N)=O)sc1-c1ccnc(C(C)(C)C(F)(F)F)c1 [alpelisib]	7.4%	0.528%	9%	5.45%				
C=CC(=O)N1CCC([C@@H]2CCNc3c(C(N)=O)c(-c4ccc(Oc5ccccc5)cc4)nn32)CC1 [zanubrutinib]	-0.59%	-3.24%	-7%	-3.23%				
O=C(Nc1cnn2ccc(N3CCC[C@@H]3c3cc(F)ccc3F)nc12)N1CC[C@H](O)C1 [larotrectinib]	-0.367%	-3.33%	13%	26%				
Cc1cc(Nc2ncnc3ccc(NC4=NC(C)(C)CO4)cc23)ccc1Oc1ccn2ncnc2c1 [tucatinib]	2.8%	-1.34%	9%	10%				
FC(F)(F)c1ccc(CNc2ccc(Cc3c[nH]c4ncc(Cl)cc34)cn2)cn1 [pexidartinib]	-0.918%	0.233%	8%	90%				
Cn1cnc2c(F)c(Nc3ccc(Br)cc3F)c(C(=O)NOCCO)cc21 [binimetinib]	0.117%	-4%	-4.32%	-10%				
CN1CCN(c2ccc(C(=O)Nc3n[nH]c4ccc(Cc5cc(F)cc(F)c5)cc34)c(NC3CCOCC3)c2)CC1 [entrectinib]	11%	7%	102%	100%				
COC(=O)N[C@@H](C)CNc1nccc(-c2cn(C(C)C)nc2-c2cc(Cl)cc(NS(C)(=O)=O)c2F)n1 [encorafenib]	2.77%	1.32%	-0.237%	-7%				
C[C@H]1Oc2cc(cnc2N)-c2c(nn(C)c2C#N)CN(C)C(=O)c2ccc(F)cc21 [lorlatinib]	10%	3.28%	26%	21%				
CCN1CCN(c2ccc(Nc3cc(N(C)C(=O)Nc4c(Cl)c(OC)cc(OC)c4Cl)ncn3)cc2)CC1 [infigratinib]	27%	-0.775%	8%	63%				
COc1ccc(CN2C3CC2CN(c2ccc(-c4cc(OCC(C)(C)O)cn5ncc(C#N)c45)cn2)C3)cn1 [selpercatinib]	2%	-0.275%	10%	73%				
Cn1cnc2c(F)c(Nc3ccc(Br)cc3Cl)c(C(=O)NOCCO)cc21 [selumetinib]	9%	2.83%	6%	-0.119%				
CCc1nc(C(N)=O)c(Nc2ccc(N3CCC(N4CCN(C)CC4)CC3)c(OC)c2)nc1NC1CCOCC1 [gilteritinib]	38%	66%	98%	99%				
CCN1C(=O)N(c2c(F)c(OC)cc(OC)c2F)Cc2cnc3[nH]c(CN4CCOCC4)cc3c21 [pemigatinib]	-2%	-5%	-2.15%	5%				
Cn1cc(-c2cc3c(N4CCN(c5ncc([C@@](C)(N)c6ccc(F)cc6)cn5)CC4)ncnn3c2)cn1 [avapritinib]	9%	11%	85%	98%				
CNC(=O)c1ccc(-c2cnc3ncc(Cc4ccc5ncccc5c4)n3n2)cc1F [capmatinib]					2.36%	-0.288%	-1.53%	-1%
C[C@H](Nc1ncnc2nc[nH]c12)c1cc2cccc(Cl)c2c(=O)n1-c1ccccc1 [duvelisib]	9%	-0.18%	0.44%	8%				
